Measurements taken from patent publication US9771333B2, “Quinazoline derivatives as TAM family kinase inhibitors” (SIGNALCHEM LIFESCIENCES CORP., priority 2013, dated 2017).

Tests used:
Format in all cases: biochemical
[1] = biological target: T1, human Axl (Homo sapiens, UniProt P30530); assay: Kinase enzymatic activity assay (33P-radiolabeled phosphate transfer), Axl; settings: recombinant human Axl (473-end), poly(4:1 glu:tyr) substrate, 30 minutes
T1 construct: GST (N); made in house; host or cells: Sf9 insect cells (baculovirus)
T1 sequence (P30530 473-894 limits assumed): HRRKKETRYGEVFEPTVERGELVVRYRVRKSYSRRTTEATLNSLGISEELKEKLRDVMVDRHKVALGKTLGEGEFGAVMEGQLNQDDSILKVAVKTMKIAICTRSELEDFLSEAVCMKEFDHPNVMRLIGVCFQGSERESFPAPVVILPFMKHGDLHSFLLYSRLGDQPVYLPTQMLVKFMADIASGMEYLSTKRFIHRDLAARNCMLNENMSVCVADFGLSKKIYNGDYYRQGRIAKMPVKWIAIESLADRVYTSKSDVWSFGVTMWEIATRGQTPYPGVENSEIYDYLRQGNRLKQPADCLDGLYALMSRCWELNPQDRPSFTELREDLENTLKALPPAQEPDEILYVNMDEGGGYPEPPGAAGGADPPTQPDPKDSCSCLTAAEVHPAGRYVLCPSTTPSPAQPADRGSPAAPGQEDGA
Procedure, shortened: (§1)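 GST-tagged human Tyro3 (455-end), Axl (473-end) and Mer (578-872) from Sf9 cells, with poly(Glu:Tyr) 4:1 substrate, in MOPS pH 7.2 buffer with MgCl2. [33P]-ATP added from a 250 µM cocktail; reaction 30 min at room temperature, filter-captured counts, duplicates. IC50 derived from % inhibition over a compound serial dilution.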

[2] = biological target: T2, human Mer (Homo sapiens, UniProt Q12866); assay: Kinase enzymatic activity assay (33P-radiolabeled phosphate transfer), Mer; settings: recombinant human Mer (578-872), poly(4:1 glu:tyr) substrate, 30 minutes
T2 construct: GST (N); made in house; host or cells: Sf9 insect cells (baculovirus)
T2 sequence (Q12866 578-872): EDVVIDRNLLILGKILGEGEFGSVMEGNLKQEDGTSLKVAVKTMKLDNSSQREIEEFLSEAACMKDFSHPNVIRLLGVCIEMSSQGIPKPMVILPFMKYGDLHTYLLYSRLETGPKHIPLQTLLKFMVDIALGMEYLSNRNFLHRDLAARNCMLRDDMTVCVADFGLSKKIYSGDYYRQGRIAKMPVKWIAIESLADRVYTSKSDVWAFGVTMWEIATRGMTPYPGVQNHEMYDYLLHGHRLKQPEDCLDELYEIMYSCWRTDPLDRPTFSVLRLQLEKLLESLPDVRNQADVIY
Procedure, shortened: as §1

[3] = biological target: T3, human Tyro3 (Homo sapiens, UniProt Q06418); assay: Kinase enzymatic activity assay (33P-radiolabeled phosphate transfer), Tyro3; settings: recombinant human Tyro3 (455-end), poly(4:1 glu:tyr) substrate, 30 minutes
T3 construct: GST (N); made in house; host or cells: Sf9 insect cells (baculovirus)
T3 sequence (Q06418 455-890 limits assumed): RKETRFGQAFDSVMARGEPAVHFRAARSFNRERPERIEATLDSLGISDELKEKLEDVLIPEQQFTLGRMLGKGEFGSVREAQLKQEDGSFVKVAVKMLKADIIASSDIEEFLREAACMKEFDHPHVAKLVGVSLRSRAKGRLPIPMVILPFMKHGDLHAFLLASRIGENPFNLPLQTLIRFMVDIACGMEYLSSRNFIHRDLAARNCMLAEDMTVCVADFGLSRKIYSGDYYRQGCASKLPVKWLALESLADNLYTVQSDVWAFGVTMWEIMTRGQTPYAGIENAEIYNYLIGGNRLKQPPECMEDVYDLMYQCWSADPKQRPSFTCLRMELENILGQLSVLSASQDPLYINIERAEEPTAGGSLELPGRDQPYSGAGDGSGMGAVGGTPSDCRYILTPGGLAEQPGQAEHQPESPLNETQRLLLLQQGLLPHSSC
Procedure, shortened: as §1

Row | SMILES | IC50 [1] [nM] | IC50 [2] [nM] | IC50 [3] [nM]
1 | OC[C@@H](O)COc1cc(OC2CCOCC2)c2c(Oc3ccc(F)cc3Cl)ncnc2c1 [Example 5, (R)-3-((4-(2-chloro-4-fluorophenoxy)-5-((tetrahydro-2H-pyran-4-yl)oxy)quinazolin-7-yl)oxy)propane-1,2-diol] | 1000 to 10000 | 500 to 1000 | 500 to 1000
2 | CC(C)Oc1ncnc2cc(OCC3CCN(C)CC3)cc(OC3CCOCC3)c12 [Example 6, 4-isopropoxy-7-((1-methylpiperidin-4-yl)methoxy)-5-((tetrahydro-2H-pyran-4-yl)oxy)quinazoline] | < 500 | < 500 | < 500
3 | CCN(CC)CCNc1cc(OC2CCOCC2)c2c(Nc3nc(C(F)(F)F)cs3)ncnc2c1 [Example 7, N^7-(2-(diethylamino)ethyl)-5-((tetrahydro-2H-pyran-4-yl)oxy)-N^4-(4-(trifluoromethyl)thiazol-2-yl)quinazoline-4,7-diamine] | 1000 to 10000 | > 10000 | > 10000
4 | CN1CCC(COc2cc(OC3CCOCC3)c3c(Nc4ncn[nH]4)ncnc3c2)CC1 [Example 8, 7-((1-methylpiperidin-4-yl)methoxy)-5-((tetrahydro-2H-pyran-4-yl)oxy)-N-(1H-1,2,4-triazol-5-yl)quinazolin-4-amine] | > 10000 | > 10000 | > 10000

More lines, now with the values ahead:

Row | IC50 [1] [nM] | IC50 [2] [nM] | IC50 [3] [nM] | SMILES
5 | 1000 to 10000 | > 10000 | 1000 to 10000 | COCCOc1cc(OCCN2CCN(C)CC2)cc2ncnc(Sc3cc(F)cc(F)c3)c12 [Example 4.3, 4-((3,5-difluorophenyl)thio)-5-(2-methoxyethoxy)-7-(2-(4-methylpiperazin-1-yl)ethoxy)quinazoline]
6 | 1000 to 10000 | > 10000 | 1000 to 10000 | COCCOc1cc(OCCN2CCN(C)CC2)cc2ncnc(Sc3ccc(Cl)cc3Cl)c12 [Example 4.4, 4-((2,4-dichlorophenyl)thio)-5-(2-methoxyethoxy)-7-(2-(4-methylpiperazin-1-yl)ethoxy)quinazoline]
7 | 1000 to 10000 | > 10000 | < 500 | COCCOc1cc(OCCN2CCN(C)CC2)cc2ncnc(Sc3ccc(F)c(Br)c3)c12 [Example 4.5, 4-((3-bromo-4-fluorophenyl)thio)-5-(2-methoxyethoxy)-7-(2-(4-methylpiperazin-1-yl)ethoxy)quinazoline]
8 | 500 to 1000 | < 500 | < 500 | CN1CCC(COc2cc(OC3CCOCC3)c3c(Oc4ccc(F)cc4Cl)ncnc3c2)CC1 [Example 4.7, 4-(2-chloro-4-fluorophenoxy)-7-((1-methylpiperidin-4-yl)methoxy)-5-((tetrahydro-2H-pyran-4-yl)oxy)quinazoline]
9 | > 10000 | 1000 to 10000 | 1000 to 10000 | Fc1ccc(Oc2ncnc3cc(OCCCN4CCOCC4)cc(N4CCOCC4)c23)c(Cl)c1 [Example 4.8, 4-(3-((4-(2-chloro-4-fluorophenoxy)-5-morpholinoquinazolin-7-yl)oxy)propyl)morpholine]
10 | > 10000 | 1000 to 10000 | < 500 | CN1CCN(c2cc(OCCCN3CCOCC3)cc3ncnc(Oc4ccc(F)cc4Cl)c23)CC1 [Example 4.9, 4-(3-((4-(2-chloro-4-fluorophenoxy)-5-(4-methylpiperazin-1-yl)quinazolin-7-yl)oxy)propyl)morpholine]
11 | 500 to 1000 | 500 to 1000 | < 500 | CN1CCC(COc2cc(OC3CCOCC3)c3c(Oc4cccc(C(F)(F)F)c4)ncnc3c2)CC1 [Example 4.10, 7-((1-methylpiperidin-4-yl)methoxy)-5-((tetrahydro-2H-pyran-4-yl)oxy)-4-(3-(trifluoromethyl)phenoxy)quinazoline]
12 | < 500 | 500 to 1000 | < 500 | CN1CCC(COc2cc(OC3CCOCC3)c3c(Oc4ccc(C(F)(F)F)cc4)ncnc3c2)CC1 [Example 4.11, 7-((1-methylpiperidin-4-yl)methoxy)-5-((tetrahydro-2H-pyran-4-yl)oxy)-4-(4-(trifluoromethyl)phenoxy)quinazoline]
